Data: patent US20170035806A1, “COMPOSITION FOR PROPHYLAXIS AND TREATMENT OF BONE DISORDERS” (Chemische Fabrik Budenheim KG, priority 2014, published 2017)

Columns and labels:
Type in all cases: cell-based, Human
SaOS-2 cells [1] = experiment: Number of SaOS-2 cells per well (FIG. 3); settings: for effect on number of SaOS-2 cells per well: polyP 50 μM where present
Protocol: Only at a very high concentration, LaCl3 caused a strong drop of SaOS-2 cell number.
(§1) Human osteogenic sarcoma SaOS-2 cells are cultured in McCoy's medium (Biochrom, Berlin; Germany) containing 5 mM Na-phosphate and 1 mM CaCl2, supplemented with 15% heat inactivated fetal calf serum (FCS), Na-pyruvate (1 mM), Ca(NO3)2 (0.5 mM), penicillin (100 U/ml), and streptomycin (100 μg/ml), in 6-well plates (surface area 9.46 cm^2; Orange Scientifique, Braine-l'Alleud; Belgium) in a humidified incubator at 37° C. and 5% CO2. Routinely, 2×10^4 cells are added per well (total volume 3 ml).

SaOS-2 cells [2] = experiment: HA mineralization with LaCl3 / polyP, Alizarin Red S OD 570 nm (FIG. 5, 6)
Protocol: The cells were grown for 4 days in the absence of the activation cocktail (AC) and then for further 7 days (i) in the absence or (ii) in the presence of the activation cocktail with increasing concentrations of LaCl3 without (A) or with (B) 50 μM polyP (polyP•La complex). At the end of the incubation period, HA mineralization was determined by incubation of the cultures with Alizarin Red S in the spectrophotometric assay. […] The OD values at 570 nm measured in the spectrophotometric assay in the absence of the activation cocktail had been subtracted from the OD values at 570 nm measured in the presence of the activation cocktail, and the HA formation in the absence of LaCl3 and polyP (FIG. 5 A) was set to 100%.
The data shown in FIG. 5 had been normalized by the number of cells which had been determined in parallel assays. […] The HA formation in the absence of LaCl3 and polyP (FIG. 6 A) was set to 100%.
Similar results were obtained if the values were normalized by cell number (FIG. 6).

SaOS-2 cells [3] = experiment: MTT colorimetric proliferation/viability assay; settings: tested concentration range of 0.3 to 30 μM; Me = Gd
Protocol: In this assay Me was Gd. The recordings of developed formazan dye in the control (filled bar) were set to 100%. The results are expressed as means (n=10 experiments each)±SEM.
The effects of polyP•Me as well as of the single components polyP and MeCl3 on proliferation/viability of SaOS-2 cells were determined by applying the MMT colorimetric assay (MMT=3-(4,5-dimethylthiazol-2-yl)-2,5-diphenyltetrazolium bromide).
as §1
SaOS-2 cells are seeded at a density of 2×10^4 cells per 3-ml well in a 24-multi-well plate (Orange Scientifique) and cultured for 3 days in McCoy's medium/15% FCS. Increasing concentrations of MeCl3, polyP or polyP•Me are added to the cultures. After incubation, cell proliferation is determined applying the colorimetric method based on the tetrazolium salt […].

SaOS-2 cells [4] = experiment: HA mineralization, Alizarin Red S staining and spectrophotometric assay (FIG. 4); settings: 5 μM, Me = Gd
Protocol: In this assay Me was Gd. The cells were incubated with 5 μM of each of the compounds. FIG. 4 A: The cells were grown for 7 d in the (a) absence or (b) presence of activation cocktail (AC=50 μM ascorbic acid, 10 nM dexamethasone and 1 mM β-glycerophosphate). In separate experiments the cultures were incubated with the activation cocktail and additionally with (c) MeCl3, (d) polyP, or (e) polyP•Me. After incubation, the cell assays were stained with Alizarin Red S to assess the degree of […]. The diameter of the wells was 15 mm. FIG. 4 B: To quantitatively determine the HA mineralization in SaOS-2 cells, the cultures were assayed at the end of the incubation with Alizarin Red S (AR) in the spectrophotometric assay. […]
The intensity of the Alizarin Red colorimetric reaction at the used concentration range is proportional to the extent of mineralization (HA formation), as determined by using a calibration curve. The values measured (given in nmoles of Alizarin Red S bound) were normalized to the total amount of DNA (given in μg) which is proportional to cell number (the amount of DNA per cell is assumed to remain constant during the experiment). […]
The influence of trivalent cations on the extent of mineralization of SaOS-2 cells was determined in vitro using McCoy's medium/10% FCS and applying Alizarin Red S as a dye to monitor HA formation. […]

SaOS-2 cells [5] = experiment: SEM analysis of HA nodules; settings: 5 μM, activated cultures, 5 days
Protocol: In this assay Me was Gd. 5 μM of each compound were added to the cells, and the cells were analysed by SEM. The cell cultures were incubated for 5 days either (A) in the absence or (B) in the presence of the activation cocktail. (C) and (F) show incubation of the activated cells with MeCl3; (D) and (G) show incubation of the activated cells with polyP, and (E) and (H) show incubation of the activated cells with polyP•Me. Some nodules (no) and cell layers (c) are marked.
To assure that the increased Alizarin Red S staining is due to a higher HA (Ca-phosphate) deposition SEM analyses were performed. In the absence of the activation cocktail no nodules could be identified on the cells (FIG. 7A). In contrast, if the cells were incubated with the cocktail for 5 days, distinct HA nodules could be identified (FIG. 7B). In the presence of the activation cocktail the cultures were incubated with MeCl3 (FIG. 7C), polyP (FIG. 7D), or both components together, as polyP•Me (FIG. 7E). It is apparent that the density of the nodules in activated cultures incubated with MeCl3 or with polyP alone was lower, compared to polyP•Me. At higher magnification it could be observed that the nodules consisted of irregularly arranged prism-like nanorods (FIGS. 7F to H). […]

BMP2 = experiment: qRT-PCR BMP2 gene expression; settings: 5 μM

Q: How did the “effect on number of SaOS-2 cells per well” value (SaOS-2 cells [1]; 0.1 mM AlCl3 and higher) turn out when `[Cl][Al]([Cl])[Cl]` [AlCl3] was run?
A: strong reduction

Q: For `[Cl][La]([Cl])[Cl]` [LaCl3], which “effect on number of SaOS-2 cells per well” value (SaOS-2 cells [1]; 0.05 mM to 1 mM LaCl3) is on record?
A: did not significantly affect

Q: And the “effect on SaOS-2 cell number” value (SaOS-2 cells [1]; very high concentration of LaCl3)?
A: strong drop

Q: What about the HA formation (SaOS-2 cells [2]; 0.05 mM LaCl3, absence of polyP, activation cocktail 7 days) of the same compound?
A: marked increase

Q: And the “stimulatory effect on HA formation” value (SaOS-2 cells [2]; LaCl3 0.5 mM and higher, absence of polyP)?
A: not observed any more

Q: How did the “viability/proliferation of SaOS-2 cells (development of the dye formazan)” value (SaOS-2 cells [3]) turn out when `[Cl][Gd]([Cl])[Cl]` [MeCl3, GdCl3] was run?
A: did not change

Q: What about the “Alizarin Red S bound normalized to total DNA (HA mineralization)” value (SaOS-2 cells [4]; 7 days after the addition of the activation cocktail) of the same compound?
A: 0.61 ± 0.08 nmol/µg

Q: What about the “Alizarin Red S staining intensity / HA formation” value (SaOS-2 cells [4]; in the presence of the activation cocktail, 7 d) of the same compound?
A: intensified the staining intensity

Q: And the “density of HA nodules compared to polyP•Me” value (SaOS-2 cells [5])?
A: lower

Q: What about the “BMP2 expression level versus day 5” value (BMP2; 7 days) of the same compound?
A: remained unchanged

Q: What about the “increase in steady-state expression of BMP2” value (BMP2; day 5, normalized to GAPDH) of the same compound?
A: 1.4 fold
